Several values for one entry are separate records, joined by “and”; a condition that tells them apart may be missing. Identical values can stand only once. Like-named read-outs stand apart in the source and are kept apart here.
Assays:
[1] = Study 1: food effect clinical study, single oral dose of encorafenib 100 mg, fasted vs high-fat meal, plasma PK and safety; assay type: in vivo, human; conditions: for AUC(0-inf) / AUC(0-t) / Cmax: GM (GCV%); for half-life: arithmetic mean ± SD; for Vd/F / CL/F: mean ± SD; for Vd/F: read-out: Vz/F; for Tmax: median (range)
Experimental: Both studies were conducted at the Celerion Clinical Research Unit in Lincoln, NE. The trial protocols and informed consent documentation were reviewed and approved by the institutional review boards at the center. These studies were conducted in compliance with the ethical principles originating in or derived from the Declaration of Helsinki and in compliance with all International Council for Harmonization Good Clinical Practice Guideline.
In study 1, participants were randomized to 2 treatment sequences. Participants were either fasted or fed a high-fat meal on day 1 of the first period and received the alternate treatment on day 1 of the second period. Each dose was separated by a washout period of at least 7 days. […] The high-fat breakfast consisted of 2 slices of buttered toast, 2 fried eggs, 2 strips of bacon, 4 oz. of hash brown potatoes, and 240 mL of whole milk. This breakfast met the criteria specified in the FDA guidance for a high-fat meal.[6] […] Water (except water provided with each dosing) was restricted 1 h prior to and 1 h after each study drug administration but was allowed ad libitum at all other times. Participants were housed from day −1 of each period until after the 36 h blood draw and/or study procedures on day 2. Participants returned to the clinical research unit for the 48 and 72 h blood draws.
Additionally, participants were instructed not to crush, split, or chew the study drug.
Serial blood samples for PK were collected in Study 1 predose and at 0.25, 0.5, 1, 1.5, 2, 2.5, 3, 3.5, 4, 5, 6, 8, 10, 12, 24, 36, and 72 h after the day 1 dose in each period.
The actual sample collection times were used for the PK parameter analysis.
The overall safety profile was characterized by laboratory test abnormalities, physical examination, vital signs, ECGs, and AEs. […] Triplicate ECGs were also measured at the end of the studies or upon early termination.
These were back-transformed to obtain the geometric LSMs and ratios of LSMs (geometric mean ratios [GMRs]), and the corresponding 90% CIs of the GMRs, on the original scale.

[2] = TIM-1 dynamic in vitro gastrointestinal model, bioaccessibility of 75 mg encorafenib capsule; assay type: in vitro ADME; conditions: for time of maximum bioaccessibility / maximum bioaccessibility / total bioaccessibility (cumulative): TIM-1, 75 mg capsule; for maximum bioaccessibility / total bioaccessibility (cumulative): mean ± SD
Description: To investigate the bioaccessibility under the different test conditions (i.e., in the fasted state, fed state, and with the use of a PPI), a dynamic in vitro GI model TIM-1 (TNO; Zeist, Netherlands) was used, which has previously been described and detailed pictorially.[25],[26] The bioaccessibility of the drug refers to the amount of drug available for drug absorption. The two filters, which are located at the end of the jejunal and ileal compartment, will capture the dissolved fraction of drug as released from the drug formulation with the help of a filtration process. The dissolved fraction of drug is the sum of drug molecules dissolved in the aqueous media (i.e., molecularly dissolved and encapsulated in the colloidal structures such as micelles). The TIM-1 model is a complex in vitro GI simulator that models the dynamic processes and conditions present in the lumen of the gastric and small intestinal regions of the GI tract. The TIM-1 system consists of a stomach, duodenum, jejunum, and ileum compartment. For more information about the setup of the TIM-1 model, the reader is referred to external literature.[27] After dosing the drug product to the stomach compartment, the computer-controlled system controls the transit of the drug formulation to the intestinal compartments at a rate that reflects the in vivo transit conditions observed in fasted, fed, and PPI states. At the end of the jejunal and ileal compartments, a lipid filtration system is installed to separate the dissolved amount of drug from these compartments and evaluate the amount of drug available for drug absorption (i.e., the bioaccessible fraction of drug). The TIM-1 model is programmed to evaluate drug product behavior in fasted, fed, and PPI conditions.[19],[28],[29] Depending on the chosen clinical condition (PPI, fed), specific experimental protocol is executed. Fasted state is simulated by implementing a predefined pH curve controlled by secretion of 1 M HCl into the gastric compartment. The gastric pH starts at pH 3 (including the coadministered glass of water) and will decrease to pH 1.7 as gastric secretion will acidify the gastric content. When the fasted PPI state is simulated, gastric content is adjusted to pH 4.5, and only water is secreted into the stomach compartment to maintain constant pH. During fed state studies, gastric pH starts at pH 6.5 and will decrease to basic fasted conditions (pH 1.7) as the food empties the stomach, and gastric secretion will be activated. Due to secretion and transit, the volumes and pH remain constant in the intestinal compartments. […] For more information about the TIM-1 settings and the determination of bioaccessible fraction, the reader is referred to external literature.[27],[28] The bioaccessible fraction was determined by withdrawing samples from the filtrate (at the end of the jejunum and ileum compartment) and these samples were, subsequently, analyzed by HPLC. The expression of the bioaccessible fraction can be depicted in a cumulative or noncumulative order to observe how much drug will become available as a function of time. […]

[3] = parameters: method as in PMID 27693678; conditions: estimated using PKPlus module, cited from earlier work
CYP2C19 = system: CYP2C19; parameters: method as in PMID 27693678; conditions: fitted using in vivo data; cited from earlier work
CYP3A4 = system: CYP3A4; parameters: method as in PMID 27693678; conditions: fitted using in vivo data; cited from earlier work
[4] = human plasma; cited from earlier work
[5] = human, plasma, po, 100 mg, study 1, 100 mg single oral dose, fasted
[6] = human, plasma, po, 100 mg, study 1, 100 mg single oral dose, fed
[7] = study 1, 100 mg single oral dose, fasted
[8] = study 1, 100 mg single oral dose, fed

## COC(=O)N[C@@H](C)CNc1nccc(-c2cn(C(C)C)nc2-c2cc(Cl)cc(NS(C)(=O)=O)c2F)n1 [encorafenib, Encorafenib]
[1]; [5]
  AUC(0-inf): 3120 ng·h/mL
  AUC(0-t): 3130 ng·h/mL
  Cmax: 962 ng/mL
  half-life: 4.79 ± 3.79 h
  Vd/F: 226 ± 207 L
[1]; human, plasma, po, 100 mg, study 1, 100 mg single oral dose, fasted, read-out: Tmax
  Tmax: 1.5 h
[1]; [6]
  AUC(0-t): 3020 ng·h/mL
  Cmax: 621 ng/mL
  half-life: 5.61 ± 3.69 h
  Vd/F: 262 ± 163 L
[1]; human, plasma, po, 100 mg, study 1, 100 mg single oral dose, fed, read-out: Tmax
  Tmax: 3.5 h
[1]; human, plasma, po, 100 mg, study 1, encorafenib 100 mg single oral dose, fed (high-fat meal)
  AUC(0-inf): 3030 ng·h/mL
[1]; single oral dose of 100 mg, healthy participants
  tolerability: tolerated
[1]; study 1
  changes in vital signs, laboratory values, or ECG measurements: No clinically significant changes
  participants reporting headache: 73%
  participants who discontinued due to an AE related to encorafenib: 2 participants
  severity of AEs: all mild in severity
[1]; [7]
  CL/F: 34.64 ± 14.209 L/h
  Tmax: 1.495 (0.997, 3.49) h
[1]; [8]
  CL/F: 35.13 ± 12.535 L/h
  Tmax: 3.499 (2.00, 5.00) h
[1]; study 1, fed vs fasted
  delay of median Tmax under fed conditions: 2 h
[1]; study 1, fed vs fasted, 100 mg
  Cmax lower in fed state than fasted: 36%
  decrease in AUCinf with a high-fat meal: 4%
  decrease in AUClast with a high-fat meal: 4%
[1]; study 1, following encorafenib in the fasted state
  participants reporting AEs: 79%
[1]; study 1, following encorafenib in the fed state
  participants reporting AEs: 92%
[1]; study 1, most common AE
  participants reporting flushing: 83%
[1]; study 1, of 40 participants who entered
  participants who discontinued due to AEs: 6 participants
[1]; study 1, overall
  participants reporting AEs: 95%
[2]; PPI
  time of maximum bioaccessibility: 1.5 h
  maximum bioaccessibility: 18% and 18 ± 4%
  total bioaccessibility (cumulative): 83% and 83 ± 6%
[2]; fasted
  time of maximum bioaccessibility: 1.5 h
  maximum bioaccessibility: 16% and 16 ± 4%
  total bioaccessibility (cumulative): 77% and 77 ± 4%
[2]; fed
  time of maximum bioaccessibility: 4 h
  maximum bioaccessibility: 13% and 13 ± 0%
  total bioaccessibility (cumulative): 80% and 80 ± 1%
[2]; TIM-1, in the 3 conditions (fasted, fed, PPI)
  bioaccessible fraction: ≥ 80%
[3]; 2-compartmental, 100 mg fasted
  clearance: 16.08 L/h[31]
[3]
  K10: 0.197 h^–1[31]
  K12: 0.173 h^–1[31]
  K21: 0.016 h^–1[31]
CYP2C19
  gut CYP2C19 Km: 7.51 mg/L
  gut CYP2C19 Vmax: 0.00504 mg/s
  liver CYP2C19 Km: 7.51 mg/L
  liver CYP2C19 Vmax: 0.00504 mg/s
CYP3A4
  gut CYP3A4 Km: 213.9 mg/L
  gut CYP3A4 Vmax: 0.0945 mg/s
  liver CYP3A4 Km: 213.9 mg/L
  liver CYP3A4 Vmax: 0.0945 mg/s
[4]
  in vitro protein binding: 86%
